The record followed here is patent publication US20240100170A1, “CYCLIC-AMP RESPONSE ELEMENT BINDING PROTEIN (CBP) AND/OR ADENOVIRAL E1A BINDING PROTEIN OF 300 KDA (P300) DEGRADATION COMPOUNDS AND METHODS OF USE” (CULLGEN (SHANGHAI), INC., priority 2020, published 2024).

Each structure is given as a SMILES string.

In one experiment the test system is LNCaP prostate cancer cell. The experiment can be described thus: LNCaP cell viability (CellTiter-Glo). The experiment is classed as cell-based. The settings on record: 3 days, 3-fold serial dilution from 10 μM; FIG. 4. The procedure:
LNCaP cells seeded in 96-well plates were treated with 10 μM GNE-781 or selected bivalent compounds, i.e. P-001, P-002, and P-019, following a 12-point 3-fold serial dilution. Three days after treatment, cell viability was determined using the CellTiter-Glo kit (Promega) following manufacturer's instructions. Cell viability was normalized to the mean values of 3 replicates of untreated cells. Dose-dependent response was analyzed following the least-squares non-linear regression method using the GraphPad Prism 5.0 software.
LNCaP (clone FGC), 22RV1 and other cells were cultured at 37° C. with 5% CO 2 in RPMI 1640 Medium supplemented with 10% fetal bovine serum. Cells were authenticated using the short tandem repeat (STR) assays. Mycoplasma test results were negative.
Cells were seeded at a density of 5000 cells per well in 96-well assay plates and treated with test compounds following a 12-point 3-fold serial dilution. Three days later, cell viability was determined using the CellTiter-Glo assay kit according to the manufactureR's instructions. The dose-response curves were determined and IC50 values were calculated using the GraphPad Prism software following a nonlinear regression (least squares fit) method.
As for `CNC(=O)N1CCc2c(c(N3CCCc4cc(-c5cnn(C)c5)c(C(F)F)cc43)nn2C2CCN(C(=O)CNc3ccc4c(c3)C(=O)N(C3CCC(=O)NC3=O)C4=O)CC2)C1` (stereo not drawn) [P-001, 3-(7-(difluoromethyl)-6-(1-methyl-1H-pyrazol-4-yl)-3,4-dihydroquinolin-1(2H)-yl)-1-(1-((2-(2,6-dioxopiperidin-3-yl)-1,3-dioxoisoindolin-5-yl)glycyl)piperidin-4-yl)-N-methyl-1,4,6,7-tetrahydro-5H-pyrazolo[4,3-c]pyridine-5-carboxamide], the “viability of LNCaP cells” value was “dose-dependently suppressed viability of LNCaP cells”.
On the same count and under the same terms, for `CNC(=O)N1CCc2c(c(N3CCCc4cc(-c5cnn(C)c5)c(C(F)F)cc43)nn2C2CCN(C(=O)CCNc3ccc4c(c3)C(=O)N(C3CCC(=O)NC3=O)C4=O)CC2)C1` (stereo not drawn) [P-002, 3-(7-(difluoromethyl)-6-(1-methyl-1H-pyrazol-4-yl)-3,4-dihydroquinolin-1(2H)-yl)-1-(1-(3-((2-(2,6-dioxopiperidin-3-yl)-1,3-dioxoisoindolin-5-yl)amino)propanoyl)piperidin-4-yl)-N-methyl-1,4,6,7-tetrahydro-5H-pyrazolo[4,3-c]pyridine-5-carboxamide] the value was “dose-dependently suppressed viability of LNCaP cells”.
Still for that read-out and setting: then `CNC(=O)N1CCc2c(c(N3CCCc4cc(-c5cnn(CC(=O)NCCCCCNc6ccc7c(c6)C(=O)N(C6CCC(=O)NC6=O)C7=O)c5)c(C(F)F)cc43)nn2C2CCOCC2)C1` (stereo not drawn) [P-019, 3-(7-(difluoromethyl)-6-(1-(2-((5-((2-(2,6-dioxopiperidin-3-yl)-1,3-dioxoisoindolin-5-yl)amino)pentyl)amino)-2-oxoethyl)-1H-pyrazol-4-yl)-3,4-dihydroquinolin-1(2H)-yl)-N-methyl-1-(tetrahydro-2H-pyran-4-yl)-1,4,6,7-tetrahydro-5H-pyrazolo[4,3-c]pyridine-5-carboxamide], with “dose-dependently suppressed viability of LNCaP cells”.

Still in this experiment, the particulars now being: Homo sapiens, 72 h; LNCaP cell viability, 3 days, CellTiter-Glo; Table 2.
In the case of `CNC(=O)N1CCc2c(c(N3CCCc4cc(-c5cnn(CC(=O)NCCCCCCCCCC(=O)NC(C(=O)N6C[C@H](O)CC6C(=O)NCc6ccc(-c7scnc7C)cc6)C(C)(C)C)c5)c(C(F)F)cc43)nn2C2CCOCC2)C1` (stereo in doubt) [P-049, 3-(7-(difluoromethyl)-6-(1-(2-((10-(((S)-1-((2S,4R)-4-hydroxy-2-((4-(4-methylthiazol-5-yl)benzyl)carbamoyl)pyrrolidin-1-yl)-3,3-dimethyl-1-oxobutan-2-yl)amino)-10-oxodecyl)amino)-2-oxoethyl)-1H-pyrazol-4-yl)-3,4-dihydroquinolin-1(2H)-yl)-N-methyl-1-(tetrahydro-2H-pyran-4-yl)-1,4,6,7-tetrahydro-5H-pyrazolo[4,3-c]pyridine-5-carboxamide], inhibition was half-maximal at 0.234 µM (IC50).
On the same count and under the same terms, for `CNC(=O)N1CCc2c(c(N3CCCc4cc(-c5cnn(CC(=O)NCCCCCCCCCCC(=O)N[C@H](C(=O)N6CC(O)C[C@H]6C(=O)NCc6ccc(-c7scnc7C)cc6)C(C)(C)C)c5)c(C(F)F)cc43)nn2C2CCOCC2)C1` (stereo in doubt) [P-050, 3-(7-(difluoromethyl)-6-(1-(2-((11-(((S)-1-((2S,4R)-4-hydroxy-2-((4-(4-methylthiazol-5-yl)benzyl)carbamoyl)pyrrolidin-1-yl)-3,3-dimethyl-1-oxobutan-2-yl)amino)-11-oxoundecyl)amino)-2-oxoethyl)-1H-pyrazol-4-yl)-3,4-dihydroquinolin-1(2H)-yl)-N-methyl-1-(tetrahydro-2H-pyran-4-yl)-1,4,6,7-tetrahydro-5H-pyrazolo[4,3-c]pyridine-5-carboxamide] the value was 0.111 µM.

Still in this experiment, the particulars now being: Homo sapiens, 72 h; LNCaP cell viability, 3 days, CellTiter-Glo; Table 3.
In the case of `CNC(=O)N1CCc2c(c(N3CCCc4cc(-c5cnn(CC(=O)NCCOCCOCCOCCOCCOCCC(=O)N[C@H](C(=O)N6C[C@H](O)C[C@H]6C(=O)NCc6ccc(-c7scnc7C)cc6)C(C)(C)C)c5)c(C(F)F)cc43)nn2C2CCOCC2)C1` [P-082], the IC50 (commonly the concentration at which inhibition is half-maximal) was more than 10 µM.
Molecule `CNC(=O)N1CCc2c(c(N3CCCc4cc(-c5cnn(CC(=O)NCCOCCOCC(=O)N[C@H](C(=O)N6C[C@H](O)C[C@H]6C(=O)NCc6ccc(-c7scnc7C)cc6)C(C)(C)C)c5)c(C(F)F)cc43)nn2C2CCOCC2)C1` [P-083, 3-(7-(difluoromethyl)-6-(1-((S)-13-((2S,4R)-4-hydroxy-2-((4-(4-methylthiazol-5-yl)benzyl)carbamoyl)pyrrolidine-1-carbonyl)-14,14-dimethyl-2,11-dioxo-6,9-dioxa-3,12-diazapentadecyl)-1H-pyrazol-4-yl)-3,4-dihydroquinolin-1(2H)-yl)-N-methyl-1-(tetrahydro-2H-pyran-4-yl)-1,4,6,7-tetrahydro-5H-pyrazolo[4,3-c]pyridine-5-carboxamide] returned an IC50 of more than 10 µM.
The same measure, in the same setting: for `CC(=O)N1CCc2c(c(N3CCCc4cc(-c5cnn(C)c5)c(C(F)F)cc43)nn2C2CCN(CCCNC(=O)CNc3cccc4c3C(=O)N(C3CCC(=O)NC3=O)C4=O)CC2)C1` (stereo not drawn) [P-124, N-(3-(4-(5-acetyl-3-(7-(difluoromethyl)-6-(1-methyl-1H-pyrazol-4-yl)-3,4-dihydroquinolin-1(2H)-yl)-4,5,6,7-tetrahydro-1H-pyrazolo[4,3-c]pyridin-1-yl)piperidin-1-yl)propyl)-2-((2-(2,6-dioxopiperidin-3-yl)-1,3-dioxoisoindolin-4-yl)amino)acetamide] the value was more than 1 µM.

The same experiment, now with this note: Homo sapiens, 72 h; LNCaP cell viability, 3 days, CellTiter-Glo; Table 4.
On to `CC(=O)N1CCc2c(c(N3CCCc4cc(-c5cnn(C)c5)c(C(F)F)cc43)nn2C2CCN(CCN3CCNC(COc4cccc5c4C(=O)N(C4CCC(=O)NC4=O)C5=O)C3)CC2)C1` (stereo not drawn) [P-197, 4-((4-(2-(4-(5-acetyl-3-(7-(difluoromethyl)-6-(1-methyl-1H-pyrazol-4-yl)-3,4-dihydroquinolin-1(2H)-yl)-4,5,6,7-tetrahydro-1H-pyrazolo[4,3-c]pyridin-1-yl)piperidin-1-yl)ethyl)piperazin-2-yl)methoxy)-2-(2,6-dioxopiperidin-3-yl)isoindoline-1,3-dione], for which the concentration for half-maximal inhibition (IC50) was more than 0.5 µM.
The molecule `CC(=O)N1CCc2c(c(N3CCCc4cc(-c5cnn(C)c5)c(C(F)F)cc43)nn2C2CCN(CCN3CCOC(CNc4cccc5c4CN(C4CCC(=O)NC4=O)C5=O)C3)CC2)C1` (stereo not drawn) [P-199, 3-(4-(((4-(2-(4-(5-acetyl-3-(7-(difluoromethyl)-6-(1-methyl-1H-pyrazol-4-yl)-3,4-dihydroquinolin-1(2H)-yl)-4,5,6,7-tetrahydro-1H-pyrazolo[4,3-c]pyridin-1-yl)piperidin-1-yl)ethyl)morpholin-2-yl)methyl)amino)-1-oxoisoindolin-2-yl)piperidine-2,6-dione] displayed an IC50 of more than 0.5 µM.
Turning to `CC(=O)N1CCc2c(c(N3CCCc4cc(-c5cnn(C)c5)c(C(F)F)cc43)nn2C2CCN(C(=O)CCN3CCC(COc4ccc5c(c4)n(C)c(=O)n5C4CCC(=O)NC4=O)CC3)CC2)C1` (stereo not drawn) [P-203, 3-(5-((1-(3-(4-(5-acetyl-3-(7-(difluoromethyl)-6-(1-methyl-1H-pyrazol-4-yl)-3,4-dihydroquinolin-1(2H)-yl)-4,5,6,7-tetrahydro-1H-pyrazolo[4,3-c]pyridin-1-yl)piperidin-1-yl)-3-oxopropyl)piperidin-4-yl)methoxy)-3-methyl-2-oxo-2,3-dihydro-1H-benzo[d]imidazol-1-yl)piperidine-2,6-dione], the 50% inhibitory concentration (IC50) is more than 0.5 µM.
`CC(=O)N1CCc2c(c(N3CCCc4cc(-c5cnn(C)c5)c(C(F)F)cc43)nn2C2CCN(C(=O)CCCN3CCC(Cn4c(=O)n(C5CCC(=O)NC5=O)c5ccccc54)CC3)CC2)C1` (stereo not drawn) [P-204, 3-(3-((1-(4-(4-(5-acetyl-3-(7-(difluoromethyl)-6-(1-methyl-1H-pyrazol-4-yl)-3,4-dihydroquinolin-1(2H)-yl)-4,5,6,7-tetrahydro-1H-pyrazolo[4,3-c]pyridin-1-yl)piperidin-1-yl)-4-oxobutyl)piperidin-4-yl)methyl)-2-oxo-2,3-dihydro-1H-benzo[d]imidazol-1-yl)piperidine-2,6-dione] yielded a 50% inhibitory concentration (IC50) of more than 0.5 µM.
Same read-out and setting: then `CC(=O)N1CCc2c(c(N3CCCc4cc(-c5cnn(C)c5)c(C(F)F)cc43)nn2C2CCN(C(=O)CCCN3CCC(COc4ccc5c(c4)n(C)c(=O)n5C4CCC(=O)NC4=O)CC3)CC2)C1` (stereo not drawn) [P-206], with more than 0.5 µM; and `CC(=O)N1CCc2c(c(N3CCCc4cc(-c5cnn(C)c5)c(C(F)F)cc43)nn2C2CCN(C(=O)CCN3CCC(COc4cccc5c4n(C)c(=O)n5C4CCC(=O)NC4=O)CC3)CC2)C1` (stereo not drawn) [P-209, 3-(4-((1-(3-(4-(5-acetyl-3-(7-(difluoromethyl)-6-(1-methyl-1H-pyrazol-4-yl)-3,4-dihydroquinolin-1(2H)-yl)-4,5,6,7-tetrahydro-1H-pyrazolo[4,3-c]pyridin-1-yl)piperidin-1-yl)-3-oxopropyl)piperidin-4-yl)methoxy)-3-methyl-2-oxo-2,3-dihydro-1H-benzo[d]imidazol-1-yl)piperidine-2,6-dione], with more than 0.5 µM.
In turn, `CC(=O)N1CCc2c(c(N3CCCc4cc(-c5cnn(C)c5)c(C(F)F)cc43)nn2C2CCN(C(=O)CCCN3CCC(COc4cccc5c4n(C)c(=O)n5C4CCC(=O)NC4=O)CC3)CC2)C1` (stereo not drawn) [P-210, 3-(4-((1-(4-(4-(5-Acetyl-3-(7-(difluoromethyl)-6-(1-methyl-1H-pyrazol-4-yl)-3,4-dihydroquinolin-1(2H)-yl)-4,5,6,7-tetrahydro-1H-pyrazolo[4,3-c]pyridin-1-yl)piperidin-1-yl)-4-oxobutyl)piperidin-4-yl)methoxy)-3-methyl-2-oxo-2,3-dihydro-1H-benzo[d]imidazol-1-yl)piperidine-2,6-dione] showed an IC50 of 0.325 µM.
